From ChEMBL document CHEMBL3886169, “Oxazine derivatives and their use in the treatment of disease” (2015)

Assays:
[1] = target: Beta-secretase 1 (Homo sapiens, UniProt P56817); test: Inhibition Assay: Recombinant BACE-1 (extracellular domain, expressed in baculovirus and purified using standard methods) at 0.1 to 1 nM concentrations is incubated with the test compound at various concentrations for 1 hour at room temperature in 100 mM acetate buffer, pH 4.5, containing 0.1% CHAPS. Activity was measured using a final concentration of 3 μM of the fluorescence-quenched substrate Q-C(HSO3)-Ile-Asp-Leu-Ala-Val-Leu-Asp-HN-CH2-CH2-Mca, where Q=2-nitro-5-amino benzoic acid and Mca=7-methoxy-4-coumarinyl acetic acid. Catalytic turnover was monitored in a Spectramax Gemini fluorescence plate reader (Molecular Devices) in black 96-well microplates using excitation/emission wavelength of 325 nm and 400 nm, respectively. Fluorescence increase was followed for 15 min, in 1 minute's intervals. The fluorescence/time slopes were calculated from duplicate wells and from wells without inhibitor and the IC50 values were calculated using a logistic 4-parameter model.
[2] = target: T1, Beta-secretase 2 (Homo sapiens, UniProt Q9Y5Z0); test: Fluorescence increase was followed for 15 min, in 1 minute's intervals. The fluorescence/time slopes were calculated from duplicate wells and from wells without inhibitor and the IC50 values were calculated using a logistic 4-parameter model.
T1 sequence (Q9Y5Z0 whole entry): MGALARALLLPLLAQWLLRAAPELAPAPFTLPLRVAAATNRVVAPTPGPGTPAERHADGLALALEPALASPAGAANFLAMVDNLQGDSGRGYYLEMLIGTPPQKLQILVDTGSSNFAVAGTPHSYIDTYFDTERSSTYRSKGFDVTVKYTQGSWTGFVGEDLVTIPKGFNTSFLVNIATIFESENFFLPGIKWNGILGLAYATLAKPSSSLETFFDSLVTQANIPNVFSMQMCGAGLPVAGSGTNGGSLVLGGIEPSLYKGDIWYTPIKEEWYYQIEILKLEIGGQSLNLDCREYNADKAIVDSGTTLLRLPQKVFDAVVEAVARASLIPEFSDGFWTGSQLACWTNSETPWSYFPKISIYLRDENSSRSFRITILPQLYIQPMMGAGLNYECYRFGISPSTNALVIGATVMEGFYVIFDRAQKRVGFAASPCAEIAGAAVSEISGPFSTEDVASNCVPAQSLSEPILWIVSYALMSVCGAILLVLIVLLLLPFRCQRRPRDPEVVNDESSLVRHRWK

Beta-secretase 1, sequence (P56817 whole entry, the tested form may be a part): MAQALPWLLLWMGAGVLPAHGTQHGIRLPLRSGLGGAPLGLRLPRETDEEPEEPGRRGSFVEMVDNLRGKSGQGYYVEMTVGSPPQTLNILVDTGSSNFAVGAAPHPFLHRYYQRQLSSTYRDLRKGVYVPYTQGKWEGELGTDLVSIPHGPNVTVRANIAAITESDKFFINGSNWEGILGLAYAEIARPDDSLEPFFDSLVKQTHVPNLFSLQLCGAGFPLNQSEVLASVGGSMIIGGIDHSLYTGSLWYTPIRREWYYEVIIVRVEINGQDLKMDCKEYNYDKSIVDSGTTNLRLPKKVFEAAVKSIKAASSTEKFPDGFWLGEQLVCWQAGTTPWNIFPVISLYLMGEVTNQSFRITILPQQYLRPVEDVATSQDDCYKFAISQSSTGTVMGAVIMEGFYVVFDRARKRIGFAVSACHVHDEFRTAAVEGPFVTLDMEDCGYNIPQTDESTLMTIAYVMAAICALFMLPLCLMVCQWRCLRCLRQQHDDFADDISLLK

IC50 [1]: 270 nM | IC50 [2]: 93 nM
Compound: COc1cnc(C(=O)Nc2ccc(F)c([C@@]3(C)N=C(N)OCC3(F)F)n2)c(C)c1
